Source: patent publication US20220378707A1, “1-(((2S,3S,4S)-3-ETHYL-4-FLUORO-5-OXOPYRROLIDIN-2-YL)METHOXY)-7-METHOXYISOQUINOLINE-6-CARBOXAMIDE COMBINATIONS AND ORAL DOSAGE FORMS” (Pfizer Inc., priority 2019, published 2022)

Assays:
[1] = Particle size of PF-06650833 by milling process; type: physicochemical; conditions: PF-06650833 particles
[2] = Combination oral pharmacokinetic study of PF-06651600 and PF-06650833 in rat; conditions: male Wistar Han rat, PF-06651600 10 and 50 mg/kg, PF-06650833 30 and 100 mg/kg
Experimental: Doses of 1-((2S,5R)-5-((7H-pyrrolo[2,3-d]pyrimidin-4-yl)amino)-2-methylpiperidin-1-yl)prop-2-en-1-one were 10 and 50 mg/kg and 1-(((2S,3S,4S)-3-ethyl-4-fluoro-5-oxopyrrolidin-2-yl)methoxy)-7-methoxyisoquinoline-6-carboxamide were 30 and 100 mg/kg in male Wistar Han.

[3] = system: human primary cell-based systems; test: BioMAP panel of 12 systems; conditions: BioMAP profile, PF-06651600 200-5400 nM
From the text: (§1) The BioMAP systems consist of human primary cell-based systems designed to model different aspects of the human body in an in vitro format. The 12 systems tested characterized the test compounds across a broad set of systems modeling various human disease states. BioMAP systems were constructed with one or more primary cell types from healthy human donors, with stimuli (such as cytokines or growth factors) added to capture relevant signaling networks that naturally occur in human tissue or pathological conditions. Vascular biology was modeled in both a Th1 (3C system) and a Th2 (4H system) inflammatory environment, as well as in a Th1 inflammatory state specific to arterial smooth muscle cells (CASM3C system). Additional systems recapitulated aspects of the systemic immune response that included monocyte-driven Th1 inflammation (LPS system) or T cell stimulation (SAg system), chronic Th1 inflammation driven by macrophage activation (IMphg system) and the T cell-dependent activation of B cells that occurs in germinal centers (BT system). The BE3C system (Th1) and the BF4T system (Th2) represented airway inflammation of the lung, while the MyoF system modeled myofibroblast-lung tissue remodeling. Lastly, skin biology was addressed in the KF3CT system modeled Th1 cutaneous inflammation and the HDF3CGF system modeled wound healing.
(§2) All cells were from a pool of multiple donors (n=2-6), commercially purchased and handled according to the recommendations of the manufacturers. Human blood derived CD14+ monocytes were differentiated into macrophages in vitro before being added to the IMphg system. Abbreviations were used as follows: human umbilical vein endothelial cells (HUVEC), peripheral blood mononuclear cells (PBMC), human neonatal dermal fibroblasts (HDFn), B cell receptor (BCR), T cell receptor (TCR) and toll-like receptor (TLR). Cell types and stimuli used in each system were as follows:
(§3) 3C system [HUVEC+(IL-1β, TNFα and IFNγ)]; 4H system [HUVEC+(IL-4 and histamine)]; LPS system [PBMC and HUVEC+LPS (TLR4 ligand)]; SAg system [PBMC and HUVEC+T cell receptor (TCR) ligands]; BT system [CD19+B cells and PBMC+(α-IgM and TCR ligands)]; BF4T system [bronchial epithelial cells and HDFn+(TNFα and IL-4)]; BE3C system [bronchial epithelial cells+(IL-1p, TNFα and IFNγ)]; CASM3C system [coronary artery smooth muscle cells+(IL-1p, TNFα and IFNγ)]; HDF3CGF system [HDFn+(IL-1β, TNFα, IFNγ, EGF, bFGF and PDGF-BB)]; KF3CT system [keratinocytes and HDFn+(IL-1β, TNFα and IFNγ)]; MyoF system [differentiated lung myofibroblasts+(TNFα and TGFβ)]; and IMphg system [HUVEC and M1 macrophages+Zymosan (TLR2 ligand)].
(§4) Systems were derived from either single cell types or co-culture systems. Adherent cell types were cultured in 96 or 384-well plates until confluence, followed by the addition of PBMC (SAg and LPS systems). The BT system consisted of CD19+B cells co-cultured with PBMC and stimulated with a BCR activator and low levels of TCR stimulation. Test agents were prepared in DMSO (final concentration <0.1%) and were added 1 hour before stimulation, and remained in culture for 24 hours or as otherwise indicated (48-hrs, MyoF system; 72-hrs, BT system (soluble readouts); 168-hrs, BT system (secreted IgG)). Each plate contained drug controls (e.g., legacy control test agent colchicine at 1.1 μM), negative controls (e.g., non-stimulated conditions) and vehicle controls (e.g., 0.1% DMSO) appropriate for each system. Direct ELISA was used to measure biomarker levels of cell-associated and cell membrane targets. Soluble factors from supernatants were quantified using either HTRF® detection, bead-based multiplex immunoassay or capture ELISA. Overt adverse effects of test agents on cell proliferation and viability (cytotoxicity) were detected by sulforhodamine B (SRB) staining, for adherent cells, and alamarBlue® reduction for cells in suspension. […]

[4] = system: PBMC and HUVEC+LPS (TLR4 ligand); test: BioMAP LPS system; type: cell-based, human; conditions: monocyte-driven Th1 inflammation, concentrations of FIGS. 12-14
From the text: as §1, §2, §3, §4

[5] = system: CD19+B cells and PBMC+(α-IgM and TCR ligands); test: BioMAP BT system; type: cell-based, human; conditions: for Inhibition of biomarker readouts in the BT system: T cell dependent B cell activation, concentrations of FIGS. 12-14; for B cell proliferation in the BT system: concentrations of FIGS. 13-14
From the text: as §1, §2, §3, §4

[6] = system: PBMC and HUVEC+T cell receptor (TCR) ligands; test: BioMAP SAg system; type: cell-based, human; conditions: for Inhibition of biomarker readouts in the SAg system: T cell-driven Th1 vascular inflammation, concentrations of FIGS. 12-16
From the text: as §1, §2, §3
Systems were derived from either single cell types or co-culture systems. Adherent cell types were cultured in 96 or 384-well plates until confluence, followed by the addition of PBMC (SAg and LPS systems). The BT system consisted of CD19+B cells co-cultured with PBMC and stimulated with a BCR activator and low levels of TCR stimulation. Test agents were prepared in DMSO (final concentration <0.1%) and were added 1 hour before stimulation, and remained in culture for 24 hours or as otherwise indicated (48-hrs, MyoF system; 72-hrs, BT system (soluble readouts); 168-hrs, BT system (secreted IgG)). Each plate contained drug controls (e.g., legacy control test agent colchicine at 1.1 μM), negative controls (e.g., non-stimulated conditions) and vehicle controls (e.g., 0.1% DMSO) appropriate for each system. Direct ELISA was used to measure biomarker levels of cell-associated and cell membrane targets. Soluble factors from supernatants were quantified using either HTRF® detection, bead-based multiplex immunoassay or capture ELISA. Overt adverse effects of test agents on cell proliferation and viability (cytotoxicity) were detected by sulforhodamine B (SRB) staining, for adherent cells, and alamarBlue® reduction for cells in suspension.

[7] = system: HDFn+(IL-1β, TNFα, IFNγ, EGF, bFGF and PDGF-BB); test: BioMAP HDF3CGF system; type: cell-based, human; conditions: wound healing, Th1-type inflammation; concentrations of FIGS. 12-16
From the text: as §1, §2, §3
Systems were derived from either single cell types or co-culture systems. Adherent cell types were cultured in 96 or 384-well plates until confluence, followed by the addition of PBMC (SAg and LPS systems). […] Test agents were prepared in DMSO (final concentration <0.1%) and were added 1 hour before stimulation, and remained in culture for 24 hours or as otherwise indicated (48-hrs, MyoF system; 72-hrs, BT system (soluble readouts); 168-hrs, BT system (secreted IgG)). […] Soluble factors from supernatants were quantified using either HTRF® detection, bead-based multiplex immunoassay or capture ELISA. Overt adverse effects of test agents on cell proliferation and viability (cytotoxicity) were detected by sulforhodamine B (SRB) staining, for adherent cells, and alamarBlue® reduction for cells in suspension.

[8] = listed as 1-((2S,5R)-5-((7H-Pyrrolo[2,3-d]pyrimidin-4-yl)amino)-2-methylpiperidin-1-yl)pro
[9] = listed as 1-((2S,5R)-5-((7H-pyrrolo[2,3-d]pyrimidin-4-yl)amino)-2-methylpiperidin-1-yl)pro

Row | Particle size D[4, 3] [1] | Particle size D[v, 0.1] [1] | Particle size D[v, 0.5] [1] | Particle size D[v, 0.9] [1] | Compound | Effects of PF-06650833 on the pharmacokinetics of PF-06651600 [2] | Immunomodulatory activities: Decreased Activity ([3]; PF-06650833 19-500 nM, tofacitinib 37-1000 nM) | Tissue Remodeling Activities: Decreased Activity [3] | Inhibition of biomarker readouts in the LPS system [4, 8] | Inhibition of biomarker readouts in the LPS system [4, 9] | Inhibition of biomarker readouts in the BT system [5, 8] | Inhibition of biomarker readouts in the BT system [5, 9] | B cell proliferation in the BT system [5, 8] | B cell proliferation in the BT system [5, 9] | Inhibition of biomarker readouts in the SAg system [6, 8] | Inhibition of biomarker readouts in the SAg system [6, 9] | Proliferation of T cells in the SAg system ([6]; concentrations of FIGS. 13-14) | Inhibition of biomarker readouts in the HDF3CGF system [7]
1 | 17.0 μm | 2.0 μm | 10.0 μm | 35.0 μm | CC[C@@H]1[C@H](F)C(=O)N[C@@H]1COc1nccc2cc(C(N)=O)c(OC)cc12 [Fitzmilled, 1-(((2S,3S,4S)-3-Ethyl-4-fluoro-5-oxopyrrolidin-2-yl)methoxy)-7-methoxyisoquinoline-6-carboxamide] |  |  |  |  |  |  |  |  |  |  |  |  | 
2 | 4.6 μm | 0.7 μm | 3.9 μm | 9.6 μm | CC[C@@H]1[C@H](F)C(=O)N[C@@H]1COc1nccc2cc(C(N)=O)c(OC)cc12 [Jetmilled, 1-(((2S,3S,4S)-3-Ethyl-4-fluoro-5-oxopyrrolidin-2-yl)methoxy)-7-methoxyisoquinoline-6-carboxamide] |  |  |  |  |  |  |  |  |  |  |  |  | 
3 |  |  |  |  | C=CC(=O)N1C[C@H](Nc2ncnc3[nH]ccc23)CC[C@@H]1C [PF-06651600, 1-((2S,5R)-5-((7H-Pyrrolo[2,3-d]pyrimidin-4-yl)amino)-2-methylpiperidin-1-yl)prop-2-en-1-one] | no significant effects | *sIgG, B cell proliferation, T cell proliferation | PAI-I | TNFα | sTNFα levels were reduced | sIgG, sIL-17A, sIL-17F, sIL-6, and TNFα | sIgG, sIL-17A, sIL-17F, sIL-6, and sTNFα | inhibited | B cell anti-proliferative activity | IL-8 | sIL-s8 levels were reduced | inhibited | PA-I
4 | 28.4 μm | 4.6 μm | 22.3 μm | 61.6 μm | CC[C@@H]1[C@H](F)C(=O)N[C@@H]1COc1nccc2cc(C(N)=O)c(OC)cc12 [Unmilled, 1-(((2S,3S,4S)-3-Ethyl-4-fluoro-5-oxopyrrolidin-2-yl)methoxy)-7-methoxyisoquinoline-6-carboxamide] |  |  |  |  |  |  |  |  |  |  |  |  | 
